In the assay the target is Substance-P receptor (Homo sapiens, UniProt P25103). Kind of assay: Tested for inhibitory activity against substance P receptor.

Each structure is given as a SMILES string.

This is an account of results in ChEMBL document CHEMBL1127126, “Conformationally restricted analogs of CP-99,994: synthesis of a spirocyclic amine” (Bioorg Med Chem Lett, 1993).

Sequence of Substance-P receptor (P25103 whole entry): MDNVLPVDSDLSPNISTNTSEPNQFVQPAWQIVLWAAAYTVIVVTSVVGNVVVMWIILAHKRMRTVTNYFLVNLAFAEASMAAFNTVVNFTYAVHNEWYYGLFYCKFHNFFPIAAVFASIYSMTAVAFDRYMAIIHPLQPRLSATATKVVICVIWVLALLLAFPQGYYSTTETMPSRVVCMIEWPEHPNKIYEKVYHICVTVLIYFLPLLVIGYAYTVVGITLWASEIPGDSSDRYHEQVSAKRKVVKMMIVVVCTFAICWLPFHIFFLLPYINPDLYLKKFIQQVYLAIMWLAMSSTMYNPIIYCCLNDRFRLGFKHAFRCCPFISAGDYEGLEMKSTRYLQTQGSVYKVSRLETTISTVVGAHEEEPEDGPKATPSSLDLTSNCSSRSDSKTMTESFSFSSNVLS

For orientation: IC50 means the midpoint of a concentration-inhibition curve. `c1ccc([C@H]2NCCC[C@]23CC[C@H](c2ccccc2)N3)cc1` registered a 50% inhibitory concentration (IC50) of over 1000 nM.
